Laboratory results: patent US20080293820A1, “METHODS FOR IMPROVING PHYSICAL FUNCTION IN FIBROMYALGIA” (Cypress Bioscience, Inc., priority 2007, published 2008)
Counter-ions that a name gives are not always drawn.

System: patients who meet the 1990 ACR criteria for fibromyalgia syndrome
Experiment: Example 2: multicenter, double-blind, randomized, placebo-controlled monotherapy study of milnacipran for treatment of fibromyalgia (1196 patients)
Type: in vivo, human
Parameters: Mean Change from Baseline in PFI SF-36 domain score / Mean Change from Baseline in ROLP SF-36 domain score / Mean Change from Baseline in PAIN SF-36 domain score / Mean Change from Baseline in GHP SF-36 domain score: scale not given here
Settings: for time-weighted average (AUC) of SF-36 PCS Scores, Median / time-weighted average (AUC) of SF-36 PCS Scores, Mean: Visits Tx3-Tx15, intent to treat; for Composite Pain: number of responders / Composite Syndrome: number of responders / PGIC Component: number of responders / Pain Component: number of responders / SF36 PCS Component: number of responders: 200 mg (396); for time-weighted average (AUC) of SF-36 PCS Scores, Difference from Placebo / time-weighted average (AUC) of SF-36 PCS Scores, LS Mean: Tx3-Tx15, ANCOVA model
Protocol: The primary outcome was a composite responder analysis assessing response rates of two doses (100 mg/day and 200 mg/day) of milnacipran as compared with placebo at Visit Tx15 (week 15).
This was a multicenter, randomized, double-blind, placebo-controlled three-arm study designed which enrolled 1196 patients who meet the 1990 ACR criteria for fibromyalgia syndrome (history of widespread pain and pain in 11 of 18 tender point sites on digital palpation), as well as the more detailed admission criteria outlined in the protocol.
Patients were randomized to receive placebo, 100 mg/day milnacipran or 200 mg/day milnacipran in a ratio of 1:1:1 (placebo=401 patients, 100 mg/day=399 patients, 200 mg/day=396 patients). The patients assigned to the two active treatment arms received a total of 12 weeks of stable-dose milnacipran exposure after the 3 weeks of dosage escalation steps, for a total of 15 weeks of drug exposure. All randomized medications (placebo and milnacipran) were administered twice a day (BID).
The primary efficacy assessment of this study was a composite responder status defined by three domains of interest evaluated at visit Tx15. The domains measured were
1) pain (measured by an electronic diary in the morning as a daily recall pain score); 2) patient global (measured by the PGIC, 1-7 scale); 3) physical function (measured by the SF-36 PCS).
The secondary efficacy parameters were time-weighted average (AUC) of the weekly average PED morning recall pain scores for Weeks 4 through 15, PGIC, and SF-36 PCS for Visit Tx3 to Visit Tx15.
The physical function domain for response analysis was measured by the Physical Component Summary of SF-36 (SF-36 PCS). The SF-36 is a brief, well-established, self-administered patient questionnaire for the assessment of health status, functional status, and quality of life. The SF-36 measures eight domains of health status: physical functioning, role limitations due to physical problems, bodily pain, general health perceptions, energy/vitality, social functioning, role limitations due to emotional problems, and mental health. An SF-36 PCS score and a mental component summary (MCS) score can be calculated by combining and weighting the various individual scales. The PCS and MCS scores have been standardized to have a mean=50, SD=10 in the general healthy US population (see, e.g., Ware, J., M. Kosinski, and J. Dewey, How to Score Version 2 of the SF-36 Health Survey (Standard & Acute Forms). 3rd ed. 2000, Lincoln, R.I.: QualityMetric).
A patient was classified as a responder for the treatment of pain of fibromyalgia if he or she reached Visit Tx15 and satisfied the following criteria: • Greater than or equal to 30% in pain reduction from baseline; • PGIC rated as “much or very much improved,” (i.e., a score of 1 or 2 on the 1-7 scale at endpoint.)
A patient was classified as a responder for the treatment of FMS if he or she satisfied the responder criteria for the treatment of pain of fibromyalgia and the following additional criterion (at visit Tx15): • Improvement on the SF-36 PCS score from baseline by an amount at least equivalent to the minimal clinically important difference, as defined in the Statistical Analysis Plan.
Table 6 summarizes 3-month results for the Baseline Observation Carried Forward (BOCF), Last Observation Carried Forward (LOCF) and study completer (OC) populations. LOCF is an analysis in which observations are carried forward to the last time point for patients who dropped out. The LOCF analysis treats the carried-forward data as observed data at the last time point. BOCF is an analysis that requires that the patient remain active in the trial to be evaluated for response. If a patient withdrew from the trial for any reason, they were classified as a non-responder irregardless of their pain and global scores at the time of withdrawal. […]

CCN(CC)C(=O)C1(c2ccccc2)CC1CN (racemic) [milnacipran, Z-2-aminomethyl-1-phenyl-N,N-diethylcyclopropanecarboxamide hydrochloride]
time-weighted average (AUC) of SF-36 PCS Scores, Median (100 mg, OC): 432.8 | Composite Pain: number of responders (3-months, BOCF): 98 | Composite Syndrome: number of responders (3-months, BOCF): 55 | PGIC Component: number of responders (3-months, BOCF): 129 | Pain Component: number of responders (3-months, BOCF): 119 | SF36 PCS Component: number of responders (3-months, BOCF): 89 | Composite Pain: number of responders (3-months, LOCF): 117 | Composite Syndrome: number of responders (3-months, LOCF): 65 | PGIC Component: number of responders (3-months, LOCF): 151 | Pain Component: number of responders (3-months, LOCF): 158 | SF36 PCS Component: number of responders (3-months, LOCF): 109 | Composite Pain: responder rate (200 mg, 3-months, BOCF): (24.75%) | Composite Pain: responder rate difference from placebo (unlabelled line) (200 mg, 3-months, BOCF): 8.29% | Composite Syndrome: responder rate (200 mg, 3-months, BOCF): (13.89%) | Composite Syndrome: responder rate difference from placebo (unlabelled line) (200 mg, 3-months, BOCF): 5.16% | PGIC Component: responder rate (200 mg, 3-months, BOCF): (32.58%) | PGIC Component: responder rate difference from placebo (unlabelled line) (200 mg, 3-months, BOCF): 9.64% | Pain Component: responder rate (200 mg, 3-months, BOCF): (30.05%) | Pain Component: responder rate difference from placebo (unlabelled line) (200 mg, 3-months, BOCF): 4.86% | SF36 PCS Component: responder rate (200 mg, 3-months, BOCF): (22.47%) | SF36 PCS Component: responder rate difference from placebo (unlabelled line) (200 mg, 3-months, BOCF): 1.02% | Composite Pain: responder rate (200 mg, 3-months, LOCF): (29.55%) | Composite Pain: responder rate difference from placebo (unlabelled line) (200 mg, 3-months, LOCF): 11.35% | Composite Syndrome: responder rate (200 mg, 3-months, LOCF): (16.41%) | Composite Syndrome: responder rate difference from placebo (unlabelled line) (200 mg, 3-months, LOCF): 6.68% | PGIC Component: responder rate (200 mg, 3-months, LOCF): (38.13%) | PGIC Component: responder rate difference from placebo (unlabelled line) (200 mg, 3-months, LOCF): 13.19% | Pain Component: responder rate (200 mg, 3-months, LOCF): (39.90%) | Pain Component: responder rate difference from placebo (unlabelled line) (200 mg, 3-months, LOCF): 11.22% | SF36 PCS Component: responder rate (200 mg, 3-months, LOCF): (27.53%) | SF36 PCS Component: responder rate difference from placebo (unlabelled line) (200 mg, 3-months, LOCF): 2.09% | Composite Pain: m/n = # of responders/# of patients included (200 mg, 3-months, OC): 98/215 | Composite Pain: responder rate (200 mg, 3-months, OC): (45.58%) | Composite Pain: responder rate difference from placebo (unlabelled line) (200 mg, 3-months, OC): 20.39% | Composite Syndrome: m/n = # of responders/# of patients included (200 mg, 3-months, OC): 55/215 | Composite Syndrome: responder rate (200 mg, 3-months, OC): (25.58%) | Composite Syndrome: responder rate difference from placebo (unlabelled line) (200 mg, 3-months, OC): 12.22% | PGIC Component: m/n = # of responders/# of patients included (200 mg, 3-months, OC): 129/255 | PGIC Component: responder rate (200 mg, 3-months, OC): (50.59%) | PGIC Component: responder rate difference from placebo (unlabelled line) (200 mg, 3-months, OC): 18.76% | Pain Component: m/n = # of responders/# of patients included (200 mg, 3-months, OC): 119/217 | Pain Component: responder rate (200 mg, 3-months, OC): (54.84%) | Pain Component: responder rate difference from placebo (unlabelled line) (200 mg, 3-months, OC): 16.44% | SF36 PCS Component: m/n = # of responders/# of patients included (200 mg, 3-months, OC): 89/255 | SF36 PCS Component: responder rate (200 mg, 3-months, OC): (34.90%) | SF36 PCS Component: responder rate difference from placebo (unlabelled line) (200 mg, 3-months, OC): 5.24% | time-weighted average (AUC) of SF-36 PCS Scores, Difference from Placebo (200 mg, LOCF): 8.36 | time-weighted average (AUC) of SF-36 PCS Scores, LS Mean (200 mg, LOCF): 420.38 | time-weighted average (AUC) of SF-36 PCS Scores, Difference from Placebo (200 mg, OC): 11.17 | time-weighted average (AUC) of SF-36 PCS Scores, LS Mean (200 mg, OC): 429.46 | Mean Change from Baseline in GHP SF-36 domain score (200 mg, Tx 15, Observed Cohort): 6.6 | Mean Change from Baseline in PAIN SF-36 domain score (200 mg, Tx 15, Observed Cohort): 18.2 | Mean Change from Baseline in PCS Score at Tx 15 (200 mg, Tx 15, Observed Cohort): 3.9 | Mean Change from Baseline in PFI SF-36 domain score (200 mg, Tx 15, Observed Cohort): 6.9 | Mean Change from Baseline in ROLP SF-36 domain score (200 mg, Tx 15, Observed Cohort): 14.9 | time-weighted average (AUC) of SF-36 PCS Scores, Mean (200 mg, LOCF): 418.97 | time-weighted average (AUC) of SF-36 PCS Scores, Median (200 mg, LOCF): 419.2 | time-weighted average (AUC) of SF-36 PCS Scores, Mean (200 mg, OC): 428.24 | time-weighted average (AUC) of SF-36 PCS Scores, Median (200 mg, OC): 428.4
